Experimental findings from EP0050799B1, “New processes for the production of di-alkyl esters and optically active mono-alkyl esters of 3-aminoglutaric acid” (ZAIDAN HOJIN BISEIBUTSU KAGAKU KENKYU KAI, priority 1980, dated 1982) are described below.

This assay deals with Staphylococcus aureus. Briefly: antibacterial activity test (minimum concentration inhibitory to growth). The note with it: for MIC: Staphylococcus aureus; for antibacterial activity against Gram-positive bacteria, particularly against Staphylococcus aureus: general statement in words. It is filed as cell-based.

Structures are written as SMILES. Converted amounts (≈) assume the structure as drawn.

On to `COC(=O)C[C@@H](N)CC(=O)O` [Example 1 (b), β-(S)-aminoglutaric acid mono-methyl ester], for which the MIC (usually the lowest concentration that inhibits growth of the organism) lay within 10 to 100 µg/mL (≈ 62.1 to 621 µM) and the “antibacterial activity against Gram-positive bacteria, particularly against Staphylococcus aureus” value (from here on “antibacterial activity”) is “exhibit antibacterial activity”.

Take `CCOC(=O)C[C@@H](N)CC(=O)O` [Example 2, β-(S)-Aminoglutaric acid mono-ethyl ester]: the MIC lay in the range of 20 to 100 µg/mL (≈ 114 to 571 µM) and the “antibacterial activity” value is recorded as “exhibit antibacterial activity”.

On to `COC(=O)C[C@H](N)CC(=O)O` [Example 4, β-(R)-aminoglutaric acid mono- methyl ester], for which the MIC came out at 20 µg/mL (≈ 124 µM) and the “antibacterial activity” value is “exhibit an antibacterial activity”.

On to `CCOC(=O)C[C@H](N)CC(=O)O` [Example 7, β-(R)-Aminoglutaric acid mono-ethyl ester], for which the MIC was 30 to 100 µg/mL (≈ 171 to 571 µM).
